Earlier results as cited in patent US6713504B2, “Antifungal molecule 2-(3,4-dimethyl-2,5-dihydro-1H-pyrrol-2-yl)-1-methylethyl pentanoate” (Council of Scientific & Industrial Research, priority 2002, dated 2004).

Settings: amphotericin B and its liposomal derivatives; reported by Zager 2000; cited from earlier work

C[C@@H]1[C@H](O)[C@@H](C)/C=C/C=C/C=C/C=C/C=C/C=C/C=C/[C@H](O[C@@H]2O[C@H](C)[C@@H](O)[C@H](N)[C@@H]2O)C[C@@H]2O[C@](O)(C[C@@H](O)C[C@@H](O)[C@H](O)CC[C@@H](O)C[C@@H](O)CC(=O)O[C@H]1C)C[C@H](O)[C@H]2C(=O)O [amphotericin B]
CT50: 4.0 to 64.0 µg/mL
